The values below come from paper PMC7560981 (Medicinal chemistry research : an international journal for …, 2020).

Where two headings read alike, the source gives them in different places. Some results are limits rather than exact numbers.

Data set [1] has as its target H4-stimulated PARP1 (human Parp-1) (Homo sapiens, UniProt P09874). The data set is described as follows: Inhibition of H4-stimulated PARP1 activation. The format is biochemical. Particulars: human Parp-1, NAD+.
For data set [2] the following is noted: 90 min, pH 7.4.
Data set [3] in a line: Stability in human liver microsomes. In kind it is in vitro ADME. Particulars: 1 μM, 37 °C. For orientation: Liver microsomes are vesicles of endoplasmic reticulum, rich in cytochrome P450 enzymes.
The nature of data set [4]: Stability in mouse liver microsomes. The format is in vitro ADME. The conditions noted are these: 1 μM, 37 °C.
The subject of data set [5] is Nalm-6 isogenic RAD54−/− human leukemia cells. In kind it is cell-based. Particulars: clonogenic assay.
For data set [6] the following is noted: ref Karpova et a., 2019; cited from earlier work.
Another data set relates to cancer cell lines. Particulars: ref Nieborowska-Skorska et al., 2019, cited from earlier work.
For data set [7] the following is noted: ref Karpova et a., 2019; cited from earlier work. The source holds these as a separate data set.
Data set [8] can be described thus: Maximum kinetic aqueous solubility. Particulars: 2% DMSO/phosphate buffer pH 7.4; theoretical maximum 200 μM.
Setting [9] is: H4/PARP Inhibition IC50, histone H4-coated plates.
The mark [10] stands for this setting: read-out: H4/PARP Inhibition IC50, histone H4-coated plates.

Sequence of H4-stimulated PARP1 (human Parp-1) (P09874 whole entry): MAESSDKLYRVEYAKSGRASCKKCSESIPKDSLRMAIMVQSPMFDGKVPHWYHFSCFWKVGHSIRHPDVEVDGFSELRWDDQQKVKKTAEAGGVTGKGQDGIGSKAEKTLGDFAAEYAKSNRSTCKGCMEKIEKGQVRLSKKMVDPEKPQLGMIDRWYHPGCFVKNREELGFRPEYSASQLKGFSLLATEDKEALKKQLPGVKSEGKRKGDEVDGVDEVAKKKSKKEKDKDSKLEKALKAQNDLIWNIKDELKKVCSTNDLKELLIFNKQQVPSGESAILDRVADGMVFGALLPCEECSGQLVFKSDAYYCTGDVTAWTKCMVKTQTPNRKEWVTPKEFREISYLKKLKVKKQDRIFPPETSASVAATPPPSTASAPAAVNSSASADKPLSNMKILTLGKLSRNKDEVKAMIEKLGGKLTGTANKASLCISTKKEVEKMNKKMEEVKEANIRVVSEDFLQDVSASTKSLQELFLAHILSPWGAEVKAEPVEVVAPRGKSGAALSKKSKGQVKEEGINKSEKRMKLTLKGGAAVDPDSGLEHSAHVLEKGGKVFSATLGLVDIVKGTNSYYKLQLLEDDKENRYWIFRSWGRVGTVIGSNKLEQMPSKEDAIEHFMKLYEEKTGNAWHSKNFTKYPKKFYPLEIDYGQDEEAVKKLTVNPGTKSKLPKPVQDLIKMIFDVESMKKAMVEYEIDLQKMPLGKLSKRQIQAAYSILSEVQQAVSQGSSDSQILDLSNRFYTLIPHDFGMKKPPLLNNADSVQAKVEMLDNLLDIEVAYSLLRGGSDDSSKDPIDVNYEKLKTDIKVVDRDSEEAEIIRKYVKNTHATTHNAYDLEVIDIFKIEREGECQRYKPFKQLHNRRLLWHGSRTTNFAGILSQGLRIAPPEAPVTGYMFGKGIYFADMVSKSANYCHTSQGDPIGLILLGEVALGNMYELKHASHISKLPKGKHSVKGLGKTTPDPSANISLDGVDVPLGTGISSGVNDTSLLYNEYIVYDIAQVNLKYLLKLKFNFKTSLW

With `CCCCC[N+]1(CC(=O)OC2CCCCCCCCCCC2)CCCCC1` [Compound 13, 1-(2-(Cyclododecyloxy)-2-oxoethyl)-1-(1-pentyl)piperidin-1-ium iodide], in [1] (setting [9]), the IC50 came out at 258 nM.

`C[N+]1(CC(=O)OC2CCCCC2)CCCCC1` [Compound 16, 1-(2-(Cyclohexyloxy)-2-oxoethyl)-1-methylpiperidin-1-ium iodide] came in with an IC50 in data set [1] (setting [9]) of 77.1 nM.

As for `C[N+]1(CC(=O)OC2CCCCCCCCCCC2)CCCCCC1` [Compound 3, 1-(2-(Cyclododecyloxy)-2-oxoethyl)-1-methylazepan-1-ium iodide], in data set [1] (setting [9]), the IC50 was found to be 54 nM.

Turning to `C[N+]1(CC(=O)OC2CCCC2)CCCCC1.[I-]` [Compound 17, 1-(2-(Cyclopentyloxy)-2-oxoethyl)-1-methylpiperidin-1-ium iodide], the IC50 in [1] (setting [9]) stood at 57.1 nM. In data set [2], the “Max. Aq. Solubility” value turned out to be 200 µM.

Turning to `CC(C)(C)OC(=O)N1CC[N+](C)(CC(=O)OC2CCCCCCCCCCC2)CC1.[I-]` [Compound 8, 4-(tert-Butoxycarbonyl)-1-(2-(cyclodedecyloxy)-2-oxoethyl)-1-methylpiperazin-1-ium iodide], the IC50 in data set [1] (setting [10]) was 55.8 nM. Besides, the “Liver Microsomal Stability (t1/2, min) Human + NADPH” value in data set [3] is on record as less than 2 min. For the same molecule, in data set [4], the “Liver Microsomal Stability (t1/2, min) Mouse + NADPH” value worked out at 4.1 min.

As to `CC[N+]1(CC(=O)OC2CCCCCCCCCCC2)CCCCC1.[I-]` [Compound 10, 1-(2-(Cyclododecyloxy)-2-oxoethyl)-1-ethylpiperidin-1-ium iodide], the IC50 in data set [1] (setting [9]) turned out to be 174 nM. Moreover, the “Max. Aq. Solubility” value in data set [2] is 200 µM.

For the molecule `C[N+]1(CC(=O)OC2CCCCCCCCCCC2)CCNCC1.[I-]` [Compound 7, 1-(2-(Cyclododecyloxy)-2-oxoethyl)-1-methylpiperazinium iodide], in data set [1] (setting [9]), the IC50 was found to be 466 nM. Moreover, the “anti-clonogenic activity against BRCA-deficient NALM6 leukemia cells (in words)” value in [5] was “potent anti-clonogenic activity”.

The molecule `C[N+]1(CC(=O)OC2CCCCCCCCCCC2)CCOCC1.[I-]` [Compound 5, 4-(2-(Cyclododecyloxy)-2-oxoethyl)-4-methylmorpholin-4-ium iodide] showed an IC50 in data set [1] (setting [9]) of 34.5 nM. In addition, the “Max. Aq. Solubility” value in data set [2] came out at 200 µM.

Molecule `CCC[N+]1(CC(=O)OC2CCCCCCCCCCC2)CCCCC1` [Compound 11, 1-(2-(Cyclododecyloxy)-2-oxoethyl)-1-(1-propyl)piperidin-1-ium iodide] gave an IC50 in data set [1] (setting [9]) of 142 nM.

In the case of `CCCC[N+]1(CC(=O)OC2CCCCCCCCCCC2)CCCCC1` [Compound 12, 1-(2-(Cyclododecyloxy)-2-oxoethyl)-1-(1-butyl)piperidin-1-ium iodide], the IC50 in [1] (setting [9]) was found to be 136 nM.

Take `C[N+]1(CC(=O)OC2CCCCCCC2)CCCCC1` [Compound 15, 1-(2-(Cyclooctyloxy)-2-oxoethyl)-1-methylpiperidin-1-ium iodide]: the IC50 in data set [1] (setting [9]) was 80 nM.

As for `C[N+]1(CC(=O)OC2CCCCCCCCCCC2)CCCC1.[I-]` [Compound 2], in [1] (setting [10]), the IC50 came out at 52.4 nM. Also, the “Liver Microsomal Stability (t1/2, min) Human + NADPH” value in data set [3] was less than 2 min. Moreover, the “Liver Microsomal Stability (t1/2, min) Mouse + NADPH” value in data set [4] is given as 3.8 min.

Molecule `C[N+]1(CC(=O)OC2CCCCCCCCCCC2)CCCCC1.[I-]` [Compound 1, 1-(2-(Cyclododecyloxy)-2-oxoethyl)-1-methylpiperidin-1-ium iodide] returned an IC50 in [1] (setting [9]) of 104 nM. Also, the “in vivo half-life (in words)” value in data set [6] is given as “longer than expected”. Also, the “effect in combination with olaparib (in words)” value in the data set on cancer cell lines (a number of cell lines) is given as “synergistic effect”. Also, the “potency in in vitro proliferation assays compared with olaparib (in words)” value in the data set on cancer cell lines is “more potent than olaparib”. In addition, the “plasma protein binding (in words)” value in data set [7] is on record as “relatively high”.

On to `CN(C(=O)CO[N+]1(C)CCCCC1)C1CCCCCCCCCCC1` [Compound 18, 1-(2-(Cyclododecyl(methyl)amino)-2-oxoethoxy)-1-methylpiperidin-1ium iodide], for which, in [1] (setting [10]), the IC50 is 191 nM.

Consider `C[N+]1(CC(=O)OC2CCCCCCCCCCC2)CCSCC1.[I-]` [Compound 6, 4-(2-(Cyclododecyloxy)-2-oxoethyl)-4-methylthiomorphilin-4-ium iodide], for which the IC50 in data set [1] (setting [10]) was 156 nM. Besides, the “Liver Microsomal Stability (t1/2, min) Human + NADPH” value in data set [3] is less than 2 min. Moreover, the “Liver Microsomal Stability (t1/2, min) Mouse + NADPH” value in [4] amounted to 4 min.

With `C[N+]1(CC(=O)OC2CCCCCCCCC2)CCCCC1` [Compound 14, 1-(2-(Cyclodecyloxy)-2-oxoethyl)-1-methylpiperidin-1-ium iodide], in [1] (setting [9]), the IC50 is 53.7 nM.

`CC1(C)CC[N+](C)(CC(=O)OC2CCCCCCCCCCC2)CC1.[I-]` [Compound 4, 1-(2-(Cyclododecyloxy)-2-oxoethyl)-1,4,4-trimethylpiperidin-1-ium iodide] gave an IC50 in data set [1] (setting [9]) of 45.6 nM. Further, in [8], the “Max. Aq. Solubility” value turned out to be 95 µM.

In data set [1] (setting [9]), `C[N+]1(CC(=O)OC2CCCCCCCCCCC2)CCC(Cc2ccccc2)CC1` (stereo not drawn) [Compound 9, 4-(Benzyl)-1-(2-(cyclododecyloxy)-2-oxoethyl)-1-methylpiperidin-1ium iodide] had an IC50 of 61.8 nM.
